According to BindingDB's records for doi:10.1016/j.bmcl.2010.06.050 (Universit&#224, 2010):

Experiments:
[1] = biological target: Monoglyceride lipase MGLL (Mus musculus) (UniProt O35678); test: Inhibition of mouse brain MAGL
[2] = biological target: T1, Fatty-acid amide hydrolase 1 (Mus musculus, UniProt O08914); test: Inhibition of mouse brain FAAH assessed as conversion of [3H-ethanolamine]AEA to [3H]ethanolamine by scintillation counting
T1 sequence (O08914 whole entry): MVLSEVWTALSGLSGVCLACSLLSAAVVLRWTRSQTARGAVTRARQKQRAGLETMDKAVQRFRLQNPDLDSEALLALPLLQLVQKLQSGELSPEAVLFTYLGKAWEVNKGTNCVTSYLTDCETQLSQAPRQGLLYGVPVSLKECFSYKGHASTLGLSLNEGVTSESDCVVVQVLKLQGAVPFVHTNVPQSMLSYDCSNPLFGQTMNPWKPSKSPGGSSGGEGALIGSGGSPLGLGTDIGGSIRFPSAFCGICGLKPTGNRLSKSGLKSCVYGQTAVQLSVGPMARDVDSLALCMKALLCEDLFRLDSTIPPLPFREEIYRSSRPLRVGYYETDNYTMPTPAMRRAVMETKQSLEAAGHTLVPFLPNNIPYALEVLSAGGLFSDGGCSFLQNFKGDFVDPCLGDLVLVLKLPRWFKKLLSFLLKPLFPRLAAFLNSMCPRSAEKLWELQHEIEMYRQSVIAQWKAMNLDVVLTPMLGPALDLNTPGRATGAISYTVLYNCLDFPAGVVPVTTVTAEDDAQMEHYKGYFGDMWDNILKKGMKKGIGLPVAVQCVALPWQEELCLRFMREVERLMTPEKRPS

Monoglyceride lipase MGLL (Mus musculus), sequence (O35678 whole entry, looked up): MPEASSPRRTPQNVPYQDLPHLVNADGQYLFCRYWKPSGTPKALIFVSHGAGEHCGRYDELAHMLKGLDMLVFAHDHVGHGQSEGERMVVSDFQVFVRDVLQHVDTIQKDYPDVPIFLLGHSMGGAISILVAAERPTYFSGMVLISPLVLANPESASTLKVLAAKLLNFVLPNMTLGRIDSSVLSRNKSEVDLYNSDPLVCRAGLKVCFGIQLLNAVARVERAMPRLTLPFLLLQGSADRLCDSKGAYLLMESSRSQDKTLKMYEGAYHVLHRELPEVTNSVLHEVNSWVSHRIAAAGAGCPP

Row | Compound | IC50 [1] [µM] | IC50 [2] [µM]
1 | CC(=NOC(=O)Nc1ccccc1)c1cccc(-c2cccs2)c1 [1-(3-Thiophen-2-yl-phenyl)-ethanone, O-(phenylaminocarbonyl)oxime] | > 10 | –
2 | O=C(Nc1ccccc1)ON=C1CCC(c2ccccc2)CC1 (configuration not stated) [4-Phenyl-cyclohexanone, O-(phenylaminocarbonyl)oxime] | – | > 50
